Laboratory results taken from BindingDB's records for doi:10.1016/0014-2999(88)90158-6 (Pharmakologisches Institut, 1988).

How the values were obtained:
[1] = target: Adenosine receptor A2a (Homo sapiens, UniProt P29274)
[2] = target: T1, Adenosine receptor A1 (Rattus norvegicus, UniProt P25099)
T1 sequence (P25099 whole entry): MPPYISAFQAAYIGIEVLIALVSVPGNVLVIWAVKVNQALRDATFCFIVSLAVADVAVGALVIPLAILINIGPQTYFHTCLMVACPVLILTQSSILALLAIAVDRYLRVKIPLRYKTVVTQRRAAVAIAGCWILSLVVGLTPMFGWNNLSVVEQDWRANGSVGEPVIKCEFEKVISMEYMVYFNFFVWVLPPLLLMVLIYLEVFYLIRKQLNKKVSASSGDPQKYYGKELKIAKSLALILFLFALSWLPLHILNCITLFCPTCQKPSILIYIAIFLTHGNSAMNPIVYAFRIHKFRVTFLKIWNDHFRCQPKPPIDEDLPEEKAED

Chain of Adenosine receptor A2a (P29274 whole entry): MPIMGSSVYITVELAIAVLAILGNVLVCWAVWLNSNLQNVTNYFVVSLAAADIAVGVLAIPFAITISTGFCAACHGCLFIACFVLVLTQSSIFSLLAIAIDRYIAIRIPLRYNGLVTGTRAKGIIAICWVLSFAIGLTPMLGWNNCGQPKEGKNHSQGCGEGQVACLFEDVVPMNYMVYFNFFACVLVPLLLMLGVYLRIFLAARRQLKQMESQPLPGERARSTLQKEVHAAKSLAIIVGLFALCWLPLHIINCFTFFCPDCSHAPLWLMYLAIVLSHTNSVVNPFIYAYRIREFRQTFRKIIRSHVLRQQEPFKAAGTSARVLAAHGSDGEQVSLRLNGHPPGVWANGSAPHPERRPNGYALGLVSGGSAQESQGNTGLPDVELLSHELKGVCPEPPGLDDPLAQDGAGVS

Compound | Ki [1] [µM] | Ki [2] [µM]
OC[C@@H]1CC[C@H](n2cnc3c(NC4CCCCC4)ncnc32)O1 [ddCHA] | > 10 | 4.8
OC[C@H]1CC[C@H](n2cnc3c(NC4CCCCC4)ncnc32)O1 [alpha-ddCHA] | > 10 | –
